15 compounds from patent publication US20240287052A1, “NOVEL OXAZOLE DERIVATIVE AND PHARMACEUTICAL COMPOSITION FOR PREVENTING OR TREATING ALLERGIC DISEASES COMPRISING THE SAME” (AZCURIS CO., LTD., priority 2021, published 2024) can be followed below.

The test concerns the target T1, IL33 and ST2 binding (Homo sapiens, UniProt O95760).
T1 sequence (O95760 112-270 limits assumed): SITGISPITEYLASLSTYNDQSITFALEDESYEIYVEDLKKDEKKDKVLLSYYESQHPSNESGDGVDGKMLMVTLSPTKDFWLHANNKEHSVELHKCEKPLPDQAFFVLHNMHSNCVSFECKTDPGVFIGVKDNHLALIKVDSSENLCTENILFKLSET

Like-named read-outs stand apart in the source and are kept apart here.
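Also: plate ELISA with coated Flag-tagged human IL-33 and His-tagged human ST2, bound ST2 detected by anti-His HRP and TMB absorbance at 450 nm, 2 h compound incubation.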

Method: 100 nM of Flag tagged IL-33 human recombinant protein was prepared in 1× coating buffer (Biolegend) and placed in a 96 well microplate (Coming) using a Multichannel pipette (Gilson) and coated for at least 12 hours at 4° C.
After washing three times with PBST (1×PBS (Welgene), 1% Tween 20 (sigma)), it was reacted with 1% BSA (Bovogen) blocking buffer for 1 hour at room temperature.
Samples containing 200 nM of His-tagged ST2 human recombinant protein and 60 μM or 200 μM Example synthetic compounds were prepared, added in equal volumes, and reacted for at least 2 hours at room temperature.
After washing three times with PBST (1×PBS (Welgene), 1% Tween 20 (sigma)), anti-His HRP (BioLegend) antibody was diluted 5000:1 and reacted for at least 1 hour at room temperature.
After washing three times with PBST (1×PBS (Welgene), 1% Tween 20 (sigma)), TMB substrate solution (Thermo) was added and reacted for more than 5 minutes. The reaction was stopped by adding 1 N HCl (Samchun) and the absorbance value was obtained at 450 nm after orbital shaking for 5 s with a Microplate reader (Tecan, Spark®).
The results derived from the program linked to the microplate reader were analyzed using an Excel program. IL33-ST2 binding rate (binding %) was calculated by averaging the three values obtained in triplicate, subtracting the positive control value, and converting the negative control value to 100%. The inhibition % value of each compound was obtained by subtracting the IL33-ST2 binding % from 100%, and the error range of triplicate was also obtained and reflected in the inhibition graph of the compound.

Usually inhibition stands for the drop in the measured response relative to a control, in per cent. Consider `CCOC(=O)c1coc(-c2ccc(SC)cc2)n1` [Compound 22, Ethyl 2-(4-(methylthio)phenyl)oxazole-4-carboxylate], for which the inhibition (100 µM) came to 45%.
In the case of `CCOC(=O)c1nc(-c2ccccc2C(F)(F)F)oc1-c1ccccc1` [Compound 27, Ethyl 5-phenyl-2-(2-(trifluoromethyl)phenyl)oxazole-4-carboxylate], the inhibition (30 µM) came out at 34% and the inhibition (100 µM) was determined as 84%.
`CCOC(=O)c1nc(-c2ccccc2C(F)(F)F)oc1-c1ccccc1[N+](=O)[O-]` [Compound 28, Ethyl 5-(2-nitrophenyl)-2-(2-(trifluoromethyl)phenyl)oxazole-4-carboxylate]: the inhibition is 30% (30 µM) and 53% (100 µM).
For `CCOC(=O)c1nc(-c2cccc(C(F)(F)F)c2)oc1-c1ccccc1` [Compound 29, Ethyl 5-phenyl-2-(3-(trifluoromethyl)phenyl)oxazole-4-carboxylate] the same measures were 19% and 33%.
For the compound `CCOC(=O)c1nc(-c2cccc(C(F)(F)F)c2)oc1-c1ccccc1[N+](=O)[O-]` [Compound 30, Ethyl 5-(2-nitrophenyl)-2-(3-(trifluoromethyl)phenyl)oxazole-4-carboxylate], the inhibition (30 µM) turned out to be 42% and the inhibition (100 µM) was 102%.
For `CCOC(=O)c1nc(-c2ccc(C(F)(F)F)cc2)oc1-c1cccc(SC)c1` [Compound 40, Ethyl 5-(3-(methylthio)phenyl)-2-(4-(trifluoromethyl)phenyl)oxazole-4-carboxylate] the same measures were 108% and 115%.
On to `CCOC(=O)c1nc(-c2cccc(OC(F)(F)F)c2)oc1-c1ccccc1` [Compound 56, Ethyl 5-phenyl-2-(3-(trifluoromethoxy)phenyl)oxazole-4-carboxylate], for which the inhibition (30 µM) amounted to 40% and the inhibition (100 µM) was 93%.
For `CCOC(=O)c1nc(-c2ccc(OC(F)(F)F)cc2)oc1-c1ccccc1` [Compound 58, Ethyl 5-phenyl-2-(4-(trifluoromethoxy)phenyl)oxazole-4-carboxylate] the same measures were 44% and 105%.
The matching figures for `CCOC(=O)c1nc(-c2cccc(OC)c2)oc1-c1ccccc1` [Compound 60, Ethyl 2-(3-methoxyphenyl)-5-phenyloxazole-4-carboxylate]: 27% and 68%.
For the compound `CCOC(=O)c1nc(-c2ccc(OC)cc2)oc1-c1ccccc1` [Compound 62, Ethyl 2-(4-methoxyphenyl)-5-phenyloxazole-4-carboxylate], the inhibition by setting is: (30 µM) 33%; (100 µM) 65%.
For `CCOC(=O)c1nc(-c2ccc(OC)cc2)oc1-c1ccccc1[N+](=O)[O-]` [Compound 63, Ethyl 2-(4-methoxyphenyl)-5-(2-nitrophenyl)oxazole-4-carboxylate] the same measures were 26% and 57%.
For `CCOC(=O)c1nc(-c2ccc(OC)cc2)oc1-c1ccc([N+](=O)[O-])cc1` [Compound 64, Ethyl 2-(4-methoxyphenyl)-5-(4-nitrophenyl)oxazole-4-carboxylate] the same measures were 13% and 35%.
For `CCOC(=O)c1nc(-c2cccc(F)c2)oc1-c1ccccc1` [Compound 65, Ethyl 2-(3-fluorophenyl)-5-phenyloxazole-4-carboxylate] the same measures were 35% and 32%.
With `CCOC(=O)c1nc(-c2cccc(F)c2)oc1-c1ccccc1[N+](=O)[O-]` [Compound 66, Ethyl 2-(3-fluorophenyl)-5-(2-nitrophenyl)oxazole-4-carboxylate], the inhibition runs as follows: (30 µM) 49%; (100 µM) 71%.
In the case of `CCOC(=O)c1nc(-c2ccc(F)cc2)oc1-c1ccccc1` [Compound 67, Ethyl 2-(4-fluorophenyl)-5-phenyloxazole-4-carboxylate], the inhibition reads like this: (30 µM) 9%; (100 µM) 15%.
